Laboratory results from patent US20240124451A1, “PHTHALAZINE DERIVATIVES USEFUL AS INHIBITORS OF NOD-LIKE RECEPTOR PROTEIN 3” (Merck Sharp & Dohme LLC, priority 2022, published 2024).

Target: T1, NLRP3 inflammasome (Homo sapiens, UniProt Q96P20)
T1 construct: host or cells: THP-1 human monocytic cells, PMA-treated, stimulated with gramicidin
Assay: ASC-SPECK formation in THP-1 cells after gramicidin stimulation (NLRP3 inflammasome activation)
Format: cell-based
Conditions: PMA-treated human monocytic THP-1 cells, compound 1 h before 12.5 ug/ml gramicidin, 3 h, ASC SPECK imaging; read-out: EC50 (nM) for Examples that inhibit NLRP3 inflammasome activation
Method: The ability of compounds to inhibit NLRP3 inflammasome activation was determined in vitro by monitoring formation of the ASC-SPECK in human monocytic THP-1 cells after stimulation. THP-1 cells (ATCC catalog #TIB-202) were maintained in complete growth media containing Roswell Park Memorial Institute RPMI (ATCC catalog #30-2001), 10% heat inactivated fetal bovine serum, 1× penicillin/streptomycin and 0.05 mM 2-mercaptoethanol. At the start of the assay, undifferentiated THP-1 cells were plated at a density of 20,000 cells per well in a 384-well plate (Poly-D-lysine coated Cell Carrier Ultra microplate, Perkin Elmer catalog #6057500) in complete growth media supplemented with 10 ng/ml phorbol 12-myristate 13-acetate (PMA; Sigma catalog #P8139), and then incubated overnight. The next day, media was replaced with assay media [RPMI (Gibco catalog #11875-093), 0.01% bovine serum albumin (BSA)]. Compounds were serially diluted in DMSO and then added to wells one hour prior to the addition of 12.5 ug/ml Gramicidin (Enzo Lifescience, catalog #ALX-350-233-M005). All incubations were carried out at 37° C. (5% CO2/95% air). Following a 3-hour treatment with gramicidin, cells are fixed with 4% paraformaldehyde and stored at 4° C. until immunofluorescence staining.
Immunofluorescence staining: Anti-ASC antibody (MBL catalog #D086-3) was desalted and labeled with Alexa 488 antibody labeling kit (Thermo catalog #A20181) prior to use as described below. After fixation, the following steps were carried out at room temperature. Cells were first permeabilized with 0.3% Triton X-100 in phosphate-buffered saline (PBS) for 15 minutes and then incubated in blocking buffer containing 5% goat serum, 0.3% tween-20 and 0.03% sodium azide in PBS for 1 hour. Cells were stained with a mixture of ASC-Alexa 488 antibody (diluted 1:200 in blocking buffer) and nuclear stain DRAQ5 (1:5000 in blocking buffer, Thermo catalog #62251) in blocking buffer for 1 hour. Following a wash with 0.3% Tween-20 in PBS, plates were imaged with an Opera Phenix High Content Screening System. The number of DRAQ5 positive cells containing ASC SPECKS were quantified in each well.
Data analysis: EC50 values were calculated by standard curve-fitting analysis using an internally developed program in TIBCO Spotfire software.

T1 sequence (Q96P20 whole entry): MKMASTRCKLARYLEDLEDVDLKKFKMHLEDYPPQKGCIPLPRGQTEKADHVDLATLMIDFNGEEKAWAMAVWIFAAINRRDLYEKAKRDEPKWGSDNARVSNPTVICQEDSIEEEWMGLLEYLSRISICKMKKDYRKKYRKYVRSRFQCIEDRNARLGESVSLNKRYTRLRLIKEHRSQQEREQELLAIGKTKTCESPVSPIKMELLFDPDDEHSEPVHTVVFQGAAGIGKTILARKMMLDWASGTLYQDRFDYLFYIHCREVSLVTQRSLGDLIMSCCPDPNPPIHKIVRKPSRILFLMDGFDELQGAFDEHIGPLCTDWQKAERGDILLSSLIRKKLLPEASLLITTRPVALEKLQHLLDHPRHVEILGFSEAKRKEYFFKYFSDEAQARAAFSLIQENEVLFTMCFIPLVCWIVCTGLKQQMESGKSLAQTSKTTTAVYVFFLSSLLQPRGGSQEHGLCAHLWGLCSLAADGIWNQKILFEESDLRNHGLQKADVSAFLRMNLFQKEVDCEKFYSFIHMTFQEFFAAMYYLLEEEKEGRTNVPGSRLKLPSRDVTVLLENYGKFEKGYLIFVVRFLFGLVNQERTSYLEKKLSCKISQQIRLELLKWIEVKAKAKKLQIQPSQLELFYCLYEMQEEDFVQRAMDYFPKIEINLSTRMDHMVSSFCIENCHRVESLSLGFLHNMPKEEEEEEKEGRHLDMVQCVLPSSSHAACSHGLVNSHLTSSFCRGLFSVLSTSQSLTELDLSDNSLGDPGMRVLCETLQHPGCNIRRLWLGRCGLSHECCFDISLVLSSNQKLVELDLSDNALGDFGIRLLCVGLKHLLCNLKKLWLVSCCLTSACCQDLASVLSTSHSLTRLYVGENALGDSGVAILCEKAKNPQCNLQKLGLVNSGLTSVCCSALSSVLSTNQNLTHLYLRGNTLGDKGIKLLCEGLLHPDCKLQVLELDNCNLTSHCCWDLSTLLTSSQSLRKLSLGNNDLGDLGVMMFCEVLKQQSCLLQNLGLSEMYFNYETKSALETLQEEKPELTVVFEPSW

SMILES | EC50 [nM]
C[C@@H]1CN(c2nnc(-c3ccc(C(F)(F)F)cc3O)c3cnccc23)C[C@H](C)[C@]1(C)O [Example 17, (3S,4s,5R)-1-(4-(2-hydroxy-4-(trifluoromethyl)phenyl)pyrido[3,4-d]pyridazin-1-yl)-3,4,5-trimethylpiperidin-4-ol] | 201
C[C@@H]1CN(c2nnc(-c3ccc(C(F)(F)F)cc3O)c3cnccc23)C[C@H](C)[C@H]1O [Example 19, (3S,4r,5R)-1-(4-(2-hydroxy-4-(trifluoromethyl)phenyl)pyrido[3,4-d]pyridazin-1-yl)-3,5-dimethylpiperidin-4-ol] | 68
Cc1ccc2c(N3C[C@@H](C)O[C@@H](C)C3)nnc(-c3ccc(C(F)(F)F)cc3O)c2c1 [Example 21, 2-(4-((cis)-2,6-dimethylmorpholino)-7-methylphthalazin-1-yl)-5-(trifluoromethyl)phenol] | 815
C[C@]1(O)CCN(c2nnc(-c3ccc(C(F)(F)F)cc3O)c3cccnc23)C1 [Example 22, (S)-1-(5-(2-hydroxy-4-(trifluoromethyl)phenyl)pyrido[2,3-d]-pyridazin-8-yl)-3-methylpyrrolidin-3-ol] | 124
CN1CC[C@H]2CCN(c3nnc(-c4ccc(C(F)(F)F)cc4O)c4cccnc34)[C@H]2C1 [Example 23, 2-(8-((3aS,7aR)-6-methyloctahydro-1H-pyrrolo[2,3-c]pyridin-1-yl)pyrido[2,3-d]pyridazin-5-yl)-5-(trifluoromethyl)phenol] | 5
C[C@@H]1CN(c2nnc(-c3ccc(C(F)(F)F)cc3O)c3cccnc23)C[C@H](C)[C@]1(C)O [Example 24, (3S,4s,5R)-1-(5-(2-hydroxy-4-(trifluoromethyl)phenyl)pyrido [2,3-d]pyridazin-8-yl)-3,4,5-trimethylpiperidin-4-ol] | 52
O=C1NC2(CCN(c3nnc(-c4ccc(C(F)(F)F)cc4O)c4cccnc34)CC2)CO1 [Example 25, 8-(5-(2-hydroxy-4-(trifluoromethyl)phenyl)pyrido [2,3-d]pyridazin-8-yl)-3-oxa-1,8-diazaspiro[4.5]decan-2-one] | 148
C[C@@H]1CN(c2nnc(-c3ccc(C(F)(F)F)cc3O)c3cccnc23)C[C@H](C)S1(=O)=O [Example 26, (cis)-4-(5-(2-hydroxy-4-(trifluoromethyl)phenyl)pyrido [2,3-d]pyridazin-8-yl)-2,6-dimethylthiomorpholine 1,1-dioxide] | 96
Oc1cc(C(F)(F)F)ccc1-c1nnc(N2CCC3(CCCO3)CC2)c2ncccc12 [Example 30, 2-(8-(1-oxa-8-azaspiro[4.5]decan-8-yl)pyrido[2,3-d]pyridazin-5-yl)-5-(trifluoromethyl)phenol] | 1270
Oc1cc(C(F)(F)F)ccc1-c1nnc(N2CCC3(CCOC3)CC2)c2ncccc12 [Example 31, 2-(8-(2-oxa-8-azaspiro[4.5]decan-8-yl)pyrido[2,3-d]pyridazin-5-yl)-5-(trifluoromethyl)phenol] | 915
O=C1COC2(CCN(c3nnc(-c4ccc(C(F)(F)F)cc4O)c4cccnc34)CC2)CN1 [Example 32, 9-(5-(2-hydroxy-4-(trifluoromethyl)phenyl)pyrido [2,3-d]pyridazin-8-yl)-1-oxa-4,9-diazaspiro[5.5]undecan-3-one] | 330
C[C@@H]1CN(c2nnc(-c3ccc(C(F)(F)F)cc3O)c3cccnc23)C[C@H](C)C1(F)F [Example 33, 2-(8-((cis)-4,4-difluoro-3,5-dimethylpiperidin-1-yl)pyrido[2,3-d]pyridazin-5-yl)-5-(trifluoromethyl)phenol] | 221
CC(=O)N1CCCC12CCN(c1nnc(-c3ccc(C(F)(F)F)cc3O)c3cccnc13)CC2 [Example 34, 1-(8-(5-(2-hydroxy-4-(trifluoromethyl)phenyl)pyrido [2,3-d]pyridazin-8-yl)-1,8-diazaspiro[4.5]decan-1-yl)ethan-1-one] | 1510
CC(=O)N1CCC2(CCN(c3nnc(-c4ccc(C(F)(F)F)cc4O)c4cccnc34)CC2)C1 [Example 35, 1-(8-(5-(2-hydroxy-4-(trifluoromethyl)phenyl)pyrido [2,3-d]pyridazin-8-yl)-2,8-diazaspiro[4.5]decan-2-yl)ethan-1-one] | 420
CN1CC2(CCN(c3nnc(-c4ccc(C(F)(F)F)cc4O)c4cccnc34)CC2)OC1=O [Example 36, 8-(5-(2-hydroxy-4-(trifluoro-methyl)phenyl)pyrido[2,3-d]-pyridazin-8-yl)-3-methyl-1-oxa-3,8-diazaspiro[4.5]decan-2-one] | 742
CC1(C)CCOC12CCN(c1nnc(-c3ccc(C(F)(F)F)cc3O)c3cccnc13)CC2 [Example 37, 2-(8-(4,4-dimethyl-1-oxa-8-azaspiro[4.5]decan-8-yl)pyrido[2,3-d]pyridazin-5-yl)-5-(trifluoromethyl)phenol] | 1130
CN1C(=O)CCC12CCN(c1nnc(-c3ccc(C(F)(F)F)cc3O)c3cccnc13)CC2 [Example 39, 8-(5-(2-hydroxy-4-(trifluoromethyl)phenyl)pyrido [2,3-d]pyridazin-8-yl)-1-methyl-1,8-diazaspiro[4.5]decan-2-one] | 563
O=C1NCC2(CCN(c3nnc(-c4ccc(C(F)(F)F)cc4O)c4cccnc34)CC2)O1 [Example 40, 8-(5-(2-hydroxy-4-(trifluoromethyl)phenyl)pyrido [2,3-d]pyridazin-8-yl)-1-oxa-3,8-diazaspiro[4.5]decan-2-one] | 304
Oc1cc(C(F)(F)F)ccc1-c1nnc(N2C[C@@H]3[C@H](C2)C3(F)F)c2ncccc12 [Example 41, 2-(8-(6,6-difluoro-3-azabicyclo[3.1.0]hexan-3-yl)pyrido[2,3-d]pyridazin-5-yl)-5-(trifluoromethyl)phenol] | 999
O=C1CCC2(CCN(c3nnc(-c4ccc(C(F)(F)F)cc4O)c4cccnc34)CC2)O1 [Example 42, 8-(5-(2-hydroxy-4-(trifluoromethyl)phenyl)pyrido [2,3-d]pyridazin-8-yl)-1-oxa-8-azaspiro[4.5]decan-2-one] | 952
CC(C)(O)[C@@H]1CCN(c2nnc(-c3ccc(C(F)(F)F)cc3O)c3cccnc23)C1 [Example 49, (R)-2-(8-(3-(2-hydroxypropan-2-yl)pyrrolidin-1-yl)pyrido[2,3-d]pyridazin-5-yl)-5-(trifluoromethyl)phenol] | 1790
CC(C)(O)[C@H]1CCN(c2nnc(-c3ccc(C(F)(F)F)cc3O)c3cccnc23)C1 [Example 50, (S)-2-(8-(3-(2-hydroxypropan-2-yl)pyrrolidin-1-yl)pyrido[2,3-d]pyridazin-5-yl)-5-(trifluoromethyl)phenol] | 1330
Cc1cc(C(F)(F)F)ccc1-c1nnc([C@H]2C[C@@H](C)O[C@@H](C)C2)c2ccccc12 [Example 53, 1-((2R,4r,6S)-2,6-dimethyltetrahydro-2H-pyran-4-yl)-4-(2-methyl-4-(trifluoromethyl)phenyl)phthalazine] | 3970
C[C@@H]1C[C@](O)(c2nnc(-c3ccc(C(F)(F)F)cc3O)c3cccnc23)C[C@H](C)O1 [Example 54, (2R,4s,6S)-4-(5-(2-hydroxy-4-(trifluoromethyl)phenyl)pyrido[2,3-d]-pyridazin-8-yl)-2,6-dimethyltetrahydro-2H-pyran-4-ol] | 1100
C[C@@H]1C[C@@](O)(c2nnc(-c3ccc(C(F)(F)F)cc3O)c3cccnc23)C[C@H](C)O1 [Example 55, (2R,4r,6S)-4-(5-(2-hydroxy-4-(trifluoromethyl)phenyl)pyrido[2,3-d]-pyridazin-8-yl)-2,6-dimethyltetrahydro-2H-pyran-4-ol] | 1340
C[C@]1(O)CCN(c2nnc(-c3ccc(C(F)(F)F)cc3O)c3ccc(C(F)F)nc23)C1 [Example 56] | 90
C[C@]1(O)CCN(c2nnc(-c3ccc(C(F)(F)F)cc3O)c3cc(C(F)F)cnc23)C1 [Example 57] | 1570
